Our source for the IC50 values is publication PMC8658909, “Organometallic small molecule kinase inhibitors – direct incorporation of Re and ^99mTc into Opaganib®” (Chemical Communications (Cambridge, England), 2021).

In this experiment the target is T1, sphingosine kinase-2 (SK2) (Homo sapiens, UniProt Q9NRA0).
T1 construct: gene SPHK2
T1 sequence (Q9NRA0 1-654): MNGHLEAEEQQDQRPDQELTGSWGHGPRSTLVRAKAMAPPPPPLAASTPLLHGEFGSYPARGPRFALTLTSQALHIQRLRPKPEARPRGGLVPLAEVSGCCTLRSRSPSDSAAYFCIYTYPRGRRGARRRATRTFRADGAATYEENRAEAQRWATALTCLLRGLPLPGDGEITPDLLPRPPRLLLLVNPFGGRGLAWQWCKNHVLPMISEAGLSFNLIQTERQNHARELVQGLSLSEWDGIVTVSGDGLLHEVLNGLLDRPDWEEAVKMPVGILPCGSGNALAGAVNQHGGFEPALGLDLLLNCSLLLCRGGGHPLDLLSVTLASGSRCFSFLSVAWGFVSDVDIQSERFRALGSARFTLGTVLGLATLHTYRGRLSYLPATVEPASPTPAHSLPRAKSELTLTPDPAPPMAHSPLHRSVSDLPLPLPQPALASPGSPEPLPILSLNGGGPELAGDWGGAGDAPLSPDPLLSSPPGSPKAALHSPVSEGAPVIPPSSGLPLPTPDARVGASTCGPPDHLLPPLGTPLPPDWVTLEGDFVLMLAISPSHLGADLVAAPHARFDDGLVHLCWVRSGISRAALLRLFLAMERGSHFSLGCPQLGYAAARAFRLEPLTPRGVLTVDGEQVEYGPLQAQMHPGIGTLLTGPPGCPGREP
Put plainly: SK2 kinase inhibition IC50 (details in ESI). The experiment is classed as biochemical.

`O=C(NCc1ccncc1)C12CC3CC(C1)CC(c1ccc(Cl)cc1)(C3)C2` [Opaganib®, Opaganib] showed an IC50 of 15.8 ± 3 µM.

What is called IC50 is the midpoint of a concentration-inhibition curve. Higher therefore signals weaker potency.
